Measured values reported in patent US11377441B2, “Covalent inhibitors of KRAS” (Araxes Pharma LLC, priority 2017, dated 2022).

What follows are molecules tested against T1, KRAS G12C 1-169, his-tagged protein, GDP-loaded (Homo sapiens, UniProt P01116, G12C) (assay: Biochemical assay: covalent modification of KRAS G12C measured by mass spectrometry (RapidFire/TOF or Q-Exactive)). Conditions: covalent binding to (modification of) KRAS G12C after a ten minute incubation period.
T1 construct: KRAS G12C 1-169, his-tagged protein, GDP-loaded
Assay type: binding
Outline: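 GDP-loaded KRAS G12C 1-169 (his-tagged) at 2 μM or 0.5 μM in 20 mM Hepes, 150 mM NaCl, 1 mM MgCl2, incubated with compound at 100, 30 or 10 μM at room temperature for 10 min, 30 min, 2 h or 24 h, then quenched with formic acid. Intact-protein LC-MS, deconvolved; percent modification from modified versus unmodified protein.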

With `[2H]C([2H])([2H])N(C1CN(c2nc(N3C[C@@H](C)N(C(=O)C=C)C[C@@H]3C)c3cc(Cl)c(-c4c(C)ccc5[nH]nc(C6CC6)c45)c(F)c3n2)C1)C([2H])([2H])[2H]` (atropisomer, axis not shown) [Compound 223, 1-((2R,5S)-4-((S)-6-chloro-7-(3-cyclopropyl-5-methyl-1H-indazol-4-yl)-2-(3-(di-perdeuteromethylamino)azetidin-1-yl)-8-fluoroquinazolin-4-yl)-2,5-dimethylpiperazin-1-yl)prop-2-en-1-one] as the molecule, how does the Binding % read?
Its Binding % is “+ (+ indicates binding activity greater than 0% and up to 50%)”.

How did the Binding % turn out when `[2H]C([2H])([2H])N(C1CN(c2nc(N3C[C@@H](C)N(C(=O)C=C)C[C@@H]3C)c3cc(Cl)c(-c4c(C)ccc5[nH]nc(C6CC6)c45)c(F)c3n2)C1)C([2H])([2H])[2H]` (atropisomer, axis not shown) [Compound 224, 1-((2R,5S)-4-((R)-6-chloro-7-(3-cyclopropyl-5-methyl-1H-indazol-4-yl)-2-(3-(di-perdeuteromethylamino)azetidin-1-yl)-8-fluoroquinazolin-4-yl)-2,5-dimethylpiperazin-1-yl)prop-2-en-1-one] was run?
Its Binding % is “+ (+ indicates binding activity greater than 0% and up to 50%)”.

`C=CC(=O)N1C[C@H](C)N(c2nc(OC[C@@H]3CCCN3C)nc3c(F)c(-c4c(C)ccc5[nH]nc(C6CC6)c45)c(Cl)cc23)C[C@H]1C` (atropisomer, axis not shown) [Compound 227, 1-((2R,5S)-4-((S)-6-chloro-7-(3-cyclopropyl-5-methyl-1H-indazol-4-yl)-8-fluoro-2-(((S)-1-methylpyrrolidin-2-yl)methoxy)quinazolin-4-yl)-2,5-dimethylpiperazin-1-yl)prop-2-en-1-one] was tested. Which Binding % did it give?
The Binding % was “+ (+ indicates binding activity greater than 0% and up to 50%)”.

`C=CC(=O)N1C[C@H](C)N(c2nc(OC[C@@H]3CCCN3C)nc3c(F)c(-c4c(C)ccc5[nH]nc(C6CC6)c45)c(Cl)cc23)C[C@H]1C` (atropisomer, axis not shown) [Compound 228, 1-((2R,5S)-4-((R)-6-chloro-7-(3-cyclopropyl-5-methyl-1H-indazol-4-yl)-8-fluoro-2-(((S)-1-methylpyrrolidin-2-yl)methoxy)quinazolin-4-yl)-2,5-dimethylpiperazin-1-yl)prop-2-en-1-one] was tested. Which Binding % did it give?
Its Binding % is “+++ (+++ indicates binding activity greater than 80%)”.

How did the Binding % turn out when `C=CC(=O)N1C[C@H](C)N(c2nc(OC[C@@H]3CCCN3C)nc3c(F)c(-c4c(C)ccc5cnn(C)c45)c(Cl)cc23)C[C@H]1C` (atropisomer, axis not shown) [Compound 234, 1-((2R,5S)-4-((S)-6-chloro-7-(1,6-dimethyl-1H-indazol-7-yl)-8-fluoro-2-(((S)-1-methylpyrrolidin-2-yl)methoxy)quinazolin-4-yl)-2,5-dimethylpiperazin-1-yl)prop-2-en-1-one] was run?
Its Binding % is “++ (++ indicates binding activity from 50 to 80%)”.

How did the Binding % turn out when `C=CC(=O)N1C[C@H](C)N(c2nc(OC[C@@H]3CCCN3C)nc3c(F)c(-c4c(C)ccc5cnn(C)c45)c(Cl)cc23)C[C@H]1C` (atropisomer, axis not shown) [Compound 235, 1-((2R,5S)-4-((R)-6-chloro-7-(1,6-dimethyl-1H-indazol-7-yl)-8-fluoro-2-(((S)-1-methylpyrrolidin-2-yl)methoxy)quinazolin-4-yl)-2,5-dimethylpiperazin-1-yl)prop-2-en-1-one] was run?
The Binding % was “+++ (+++ indicates binding activity greater than 80%)”.

With `C=CC(=O)N1C[C@H](C)N(c2nc(OC[C@H]3CCCN3C)nc3c(F)c(-c4c(C)ccc5cnn(C)c45)c(Cl)cc23)C[C@H]1C` (atropisomer, axis not shown) [Compound 236, 1-((2R,5S)-4-((R)-6-chloro-7-(1,6-dimethyl-1H-indazol-7-yl)-8-fluoro-2-(((R)-1-methylpyrrolidin-2-yl)methoxy)quinazolin-4-yl)-2,5-dimethylpiperazin-1-yl)prop-2-en-1-one] as the molecule, how does the Binding % read?
The Binding % was “+ (+ indicates binding activity greater than 0% and up to 50%)”.

How did the Binding % turn out when `C=CC(=O)N1C[C@@H](C)N(c2nc(N3CC(N(C)C)C3)nc3c(F)c(-c4c(C)ccc5cnn(C)c45)c(Cl)cc23)C[C@H]1C` (atropisomer, axis not shown) [Compound 242, 1-((2R,5R)-4-((S)-6-chloro-7-(1,6-dimethyl-1H-indazol-7-yl)-2-(3-(dimethylamino)azetidin-1-yl)-8-fluoroquinazolin-4-yl)-2,5-dimethylpiperazin-1-yl)prop-2-en-1-one] was run?
Its Binding % is “+ (+ indicates binding activity greater than 0% and up to 50%)”.

With `C=CC(=O)N1C[C@@H](C)N(c2nc(N3CC(N(C)C)C3)nc3c(F)c(-c4c(C)ccc5cnn(C)c45)c(Cl)cc23)C[C@H]1C` (atropisomer, axis not shown) [Compound 243, 1-((2R,5R)-4-((R)-6-chloro-7-(1,6-dimethyl-1H-indazol-7-yl)-2-(3-(dimethylamino)azetidin-1-yl)-8-fluoroquinazolin-4-yl)-2,5-dimethylpiperazin-1-yl)prop-2-en-1-one] as the molecule, how does the Binding % read?
The Binding % was “+++ (+++ indicates binding activity greater than 80%)”.

For `C=CC(=O)N1C[C@@H](C)N(c2nc(N3CC(N(C)C)C3)nc3c(F)c(-c4c(C)ccc5cnn(C)c45)c(Cl)cc23)C[C@@H]1C` (atropisomer, axis not shown) [Compound 245, 1-((2S,5R)-4-((S)-6-chloro-7-(1,6-dimethyl-1H-indazol-7-yl)-2-(3-(dimethylamino)azetidin-1-yl)-8-fluoroquinazolin-4-yl)-2,5-dimethylpiperazin-1-yl)prop-2-en-1-one], which Binding % is on record?
Its Binding % is “+ (+ indicates binding activity greater than 0% and up to 50%)”.

With `C=CC(=O)N1C[C@@H](C)N(c2nc(N3CC(N(C)C)C3)nc3c(F)c(-c4c(C)ccc5cnn(C)c45)c(Cl)cc23)C[C@@H]1C` (atropisomer, axis not shown) [Compound 246, 1-((2S,5R)-4-((R)-6-chloro-7-(1,6-dimethyl-1H-indazol-7-yl)-2-(3-(dimethylamino)azetidin-1-yl)-8-fluoroquinazolin-4-yl)-2,5-dimethylpiperazin-1-yl)prop-2-en-1-one] as the molecule, how does the Binding % read?
Its Binding % is “+ (+ indicates binding activity greater than 0% and up to 50%)”.

With `C=CC(=O)N1C[C@H](C)N(c2nc(N3CC(N(C)C)C3)nc3c(F)c(-c4c(C)ccc5cnn(C)c45)c(Cl)cc23)C[C@@H]1C` (atropisomer, axis not shown) [Compound 248, 1-((2S,5S)-4-((S)-6-chloro-7-(1,6-dimethyl-1H-indazol-7-yl)-2-(3-(dimethylamino)azetidin-1-yl)-8-fluoroquinazolin-4-yl)-2,5-dimethylpiperazin-1-yl)prop-2-en-1-one] as the molecule, how does the Binding % read?
Its Binding % is “+ (+ indicates binding activity greater than 0% and up to 50%)”.

`C=CC(=O)N1C[C@H](C)N(c2nc(N3CC(N(C)C)C3)nc3c(F)c(-c4c(C)ccc5cnn(C)c45)c(Cl)cc23)C[C@@H]1C` (atropisomer, axis not shown) [Compound 249, 1-((2S,5S)-4-((R)-6-chloro-7-(1,6-dimethyl-1H-indazol-7-yl)-2-(3-(dimethylamino)azetidin-1-yl)-8-fluoroquinazolin-4-yl)-2,5-dimethylpiperazin-1-yl)prop-2-en-1-one] was tested. Which Binding % did it give?
Its Binding % is “+ (+ indicates binding activity greater than 0% and up to 50%)”.

`C=CC(=O)N1C[C@@H](C)N(c2nc(N3CC(N(C)C)C3)nc3c(F)c(-c4c(C)ccc5[nH]nc(C6CC6)c45)c(Cl)cc23)C[C@H]1C` (atropisomer, axis not shown) [Compound 250, 1-((2R,5R)-4-((S)-6-chloro-7-(3-cyclopropyl-5-methyl-1H-indazol-4-yl)-2-(3-(dimethylamino)azetidin-1-yl)-8-fluoroquinazolin-4-yl)-2,5-dimethylpiperazin-1-yl)prop-2-en-1-one] was tested. Which Binding % did it give?
Its Binding % is “+ (+ indicates binding activity greater than 0% and up to 50%)”.

`C=CC(=O)N1C[C@@H](C)N(c2nc(N3CC(N(C)C)C3)nc3c(F)c(-c4c(C)ccc5[nH]nc(C6CC6)c45)c(Cl)cc23)C[C@H]1C` (atropisomer, axis not shown) [Compound 251, 1-((2R,5R)-4-((R)-6-chloro-7-(3-cyclopropyl-5-methyl-1H-indazol-4-yl)-2-(3-(dimethylamino)azetidin-1-yl)-8-fluoroquinazolin-4-yl)-2,5-dimethylpiperazin-1-yl)prop-2-en-1-one] was tested. Which Binding % did it give?
The Binding % was “+++ (+++ indicates binding activity greater than 80%)”.

For `C=CC(=O)N1C[C@@H](C)N(c2nc(N3CC(N(C)C)C3)nc3c(F)c(-c4c(C)ccc5[nH]nc(C6CC6)c45)c(Cl)cc23)C[C@@H]1C` (atropisomer, axis not shown) [Compound 252, 1-((2S,5R)-4-((S)-6-chloro-7-(3-cyclopropyl-5-methyl-1H-indazol-4-yl)-2-(3-(dimethylamino)azetidin-1-yl)-8-fluoroquinazolin-4-yl)-2,5-dimethylpiperazin-1-yl)prop-2-en-1-one], which Binding % is on record?
The Binding % was “+ (+ indicates binding activity greater than 0% and up to 50%)”.

How did the Binding % turn out when `C=CC(=O)N1C[C@@H](C)N(c2nc(N3CC(N(C)C)C3)nc3c(F)c(-c4c(C)ccc5[nH]nc(C6CC6)c45)c(Cl)cc23)C[C@@H]1C` (atropisomer, axis not shown) [Compound 253, 1-((2S,5R)-4-((R)-6-chloro-7-(3-cyclopropyl-5-methyl-1H-indazol-4-yl)-2-(3-(dimethylamino)azetidin-1-yl)-8-fluoroquinazolin-4-yl)-2,5-dimethylpiperazin-1-yl)prop-2-en-1-one] was run?
Its Binding % is “+ (+ indicates binding activity greater than 0% and up to 50%)”.

For `C=CC(=O)N1C[C@H](C)N(c2nc(N3CC(N(C)C)C3)nc3c(F)c(-c4c(C)ccc5[nH]nc(C6CC6)c45)c(Cl)cc23)C[C@@H]1C` (atropisomer, axis not shown) [Compound 254, 1-((2S,5S)-4-((S)-6-chloro-7-(3-cyclopropyl-5-methyl-1H-indazol-4-yl)-2-(3-(dimethylamino)azetidin-1-yl)-8-fluoroquinazolin-4-yl)-2,5-dimethylpiperazin-1-yl)prop-2-en-1-one], which Binding % is on record?
Its Binding % is “+ (+ indicates binding activity greater than 0% and up to 50%)”.
